In US10669283B2, “Compound and pharmacologically acceptable salt thereof” (MEIJI SEIKA PHARMA CO., LTD., priority 2016, dated 2020) one finds IC50 data, which are given here for 35 molecules.

For this test, the system named is PDE4. As to the kind of experiment: PDE4 inhibition, scintillation proximity assay (SPA).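 Further: A below 100 nM B 100 to below 1000 nM C 1000 nM or more.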 The following applies: scintillation proximity assay (SPA); evaluated as classes A, B, C; read-out: PDE4 Inhibitory Activity (concentration for the inhibition rate of 50%). The test is classed as biochemical. On the procedure:
The PDE4 inhibitory activity was measured using scintillation proximity assay (SPA) as follows. A sample compound dissolved in dimethyl sulfoxide was diluted 1:10 in reaction buffer solution which contained 50 mM of Tris-HCl with pH 7.4, 8.3 mM of MgCl2, 1.7 mM of EGTA, and 3 mg/mL of bovine serum albumin (BSA). Then, 10 μL of the diluted solution was added in a 96-well assay plate. Moreover, 50 μL of PDE4 diluted 1:375 in the reaction buffer solution was added, and then 40 μL of [2,8-^3H]-adenosine-3′,5′-cyclic phosphate triethylammonium salt diluted 1:1000 in the reaction buffer solution was added. The mixture was allowed to stand at room temperature for 120 minutes. Thereafter, […] of RNA binding YSi-SPA beads suspension containing ZnSO4 was added and the mixture was allowed to stand at room temperature for 15 minutes, followed by adsorption of the enzyme reaction product to the beads. After that, the radioactivity was measured using a liquid scintillation counter for a 96-well plate. The mixture without the enzyme preparation added but only the reaction buffer solution added is a blank, and the mixture with the enzyme preparation added and only dimethyl sulfoxide added instead of the sample solution is a control.
In general terms: Scintillation proximity formats need no separation of bound from free tracer.
Take `COc1ccc(-c2nccs2)c2oc(N3CC4CCC(C3)N4)nc12` [Example 75, 2-(3,8-Diazabicyclo[3.2.1]octan-3-yl)-4-methoxy-7-(thiazol-2-yl)benzo[d]oxazole]: the IC50 was less than 100 nM.
For the molecule `COc1ccc(-c2nccs2)c2oc(N3CC4CC(C3)N4)nc12` [Example 76, 2-(3,6-Diazabicyclo[3.1.1]heptan-3-yl)-4-methoxy-7-(thiazol-2-yl)benzo[d]oxazole], the IC50 is less than 100 nM.
For the molecule `COc1ccc(-c2nccs2)c2oc(N3CC4CCCC(C3)N4)nc12` [Example 77, 2-(3,9-Diazabicyclo[3.3.1]nonan-3-yl)-4-methoxy-7-(thiazol-2-yl)benzo[d]oxazole], the IC50 was less than 100 nM.
The figure for `Oc1ccc(-c2nccs2)c2oc(N3CC4CCC(C3)N4)nc12` [Example 78, 2-(3,8-Diazabicyclo[3.2.1]octan-3-yl)-7-(thiazol-2-yl) benzo[d]oxazol-4-ol] is less than 100 nM.
With `Oc1ccc(-c2nccs2)c2oc(N3CC4CC(C3)N4)nc12` [Example 79, 2-(3,6-Diazabicyclo[3.1.1]heptan-3-yl)-7-(thiazol-2-yl)benzo[d]oxazol-4-ol], the IC50 is less than 100 nM.
The figure for `Oc1ccc(-c2nccs2)c2oc(N3CC4CCCC(C3)N4)nc12` [Example 80, 2-(3,9-Diazabicyclo[3.3.1]nonan-3-yl)-7-(thiazol-2-yl) benzo[d]oxazol-4-ol] is less than 100 nM.
The same measure for `c1csc(-c2ccc(OC3CCC3)c3nc(N4CC5CCC(C4)N5)oc23)n1` [Example 81, 2-(3,8-Diazabicyclo[3.2.1]octan-3-yl)-4-cyclobutoxy-7-(thiazol-2-yl)benzo[d]oxazole]: less than 100 nM; for `N#CCOc1ccc(-c2nccs2)c2oc(N3CC4CCC(C3)N4)nc12` [Example 82, 2-((2-(3,8-Diazabicyclo[3.2.1]octan-3-yl)-7-(thiazol-2-yl)benzo[d]oxazol-4-yl)oxy)acetonitrile]: less than 100 nM.
The figure for `COCC(O)COc1ccc(-c2nccs2)c2oc(N3CC4CCC(C3)N4)nc12` (centres unmarked) [Example 83, 1-((2-(3,8-Diazabicyclo[3.2.1]octan-3-yl)-7-(thiazol-2-yl)benzo[d]oxazol-4-yl)oxy)-3-methoxypropan-2-ol] is less than 100 nM; for `c1csc(-c2ccc(OC3CCOC3)c3nc(N4CC5CCC(C4)N5)oc23)n1` (centres unmarked) [Example 84, 2-(3,8-Diazabicyclo[3.2.1]octan-3-yl)-4-((tetrahydrofuran-3-yl)oxy)-7-(thiazol-2-yl)benzo[d]oxazole] it is less than 100 nM; for `c1csc(-c2ccc(-c3nccs3)c3oc(N4CC5CCC(C4)N5)nc23)n1` [Example 85, 2-(3,8-Diazabicyclo[3.2.1]octan-3-yl)-4,7-di(thiazol-2-yl)benzo[d]oxazole] it is less than 100 nM.
Regarding `CCOC(=O)c1cc(-c2nccs2)c2oc(N3CC4CCC(C3)N4)nc2c1` [Example 86, Ethyl 2-(3,8-diazabicyclo[3.2.1]octan-3-yl)-7-(thiazol-2-yl) benzo[d]oxazole-5-carboxylate], the IC50 was less than 100 nM.
The same measure for `CCOC(=O)c1cc(-c2nccs2)c2oc(N3CC4CC(C3)N4)nc2c1` [Example 87, Ethyl 2-(3,6-diazabicyclo[3.1.1]heptan-3-yl)-7-(thiazol-2-yl)benzo[d]oxazole-5-carboxylate]: less than 100 nM; for `CCOC(=O)c1cc(-c2nccs2)c2oc(N3CC4COCC(C3)N4)nc2c1` [Example 88, Ethyl 2-(3-oxa-7,9-diazabicyclo[3.3.1]nonan-7-yl)-7-(thiazol-2-yl)benzo[d]oxazole-5-carboxylate]: 100 to 1000 nM.
The same measure for `CCOC(=O)c1cc(-c2nccs2)c2oc(N3CC4CCCC(C3)N4)nc2c1` [Example 89, Ethyl 2-(3,9-diazabicyclo[3.3.1]nonan-3-yl)-7-(thiazol-2-yl) benzo[d]oxazole-5-carboxylate]: less than 100 nM; for `CCOC(=O)c1cc(-n2cccn2)c2oc(N3CC4CCC(C3)N4)nc2c1` [Example 90, Ethyl 2-(3,8-diazabicyclo[3.2.1]octan-3-yl)-7-(1H-pyrazol-1-yl)benzo[d]oxazole-5-carboxylate]: 100 to 1000 nM.
The figure for `CCOC(=O)c1cc(-n2cccn2)c2oc(N3CC4CC(C3)N4)nc2c1` [Example 91, Ethyl 2-(3,6-diazabicyclo[3.1.1]heptan-3-yl)-7-(1H-pyrazol-1-yl)benzo[d]oxazole-5-carboxylate] is greater than 1000 nM.
As to `CCOC(=O)c1cc(-n2cccn2)c2oc(N3CC4COCC(C3)N4)nc2c1` [Example 92, Ethyl 2-(3-oxa-7,9-diazabicyclo[3.3.1]nonan-7-yl)-7-(1H-pyrazol-1-yl)benzo[d]oxazole-5-carboxylate], the IC50 was greater than 1000 nM.
The same measure for `CCOC(=O)c1cc(-n2cccn2)c2oc(N3CC4CCCC(C3)N4)nc2c1` [Example 93, Ethyl 2-(3,9-diazabicyclo[3.3.1]nonan-3-yl)-7-(1H-pyrazol-1-yl)benzo[d]oxazole-5-carboxylate]: 100 to 1000 nM.
The same measure for `CN(C)C(=O)c1cc(-c2nccs2)c2oc(N3CC4CCC(C3)N4)nc2c1` [Example 94, 2-(3,8-Diazabicyclo[3.2.1]octan-3-yl)-N,N-dimethyl-7-(thiazol-2-yl)benzo[d]oxazole-5-carboxamide]: less than 100 nM; for `O=C(c1cc(-c2nccs2)c2oc(N3CC4CCC(C3)N4)nc2c1)N1CCOCC1` [Example 95, (2-(3,8-Diazabicyclo[3.2.1]octan-3-yl)-7-(thiazol-2-yl)benzo[d]oxazol-5-yl)(morpholino)methanone]: less than 100 nM.
The figure for `O=C(c1cc(-c2nccs2)c2oc(N3CC4CCC(C3)N4)nc2c1)N1CCCCC1` [Example 96, (2-(3,8-Diazabicyclo[3.2.1]octan-3-yl)-7-(thiazol-2-yl)benzo[d]oxazol-5-yl)(piperidin-1-yl)methanone] is less than 100 nM.
Take `O=C(c1cc(-c2nccs2)c2oc(N3CC4CCC(C3)N4)nc2c1)N1CCC1` [Example 97, (2-(3,8-Diazabicyclo[3.2.1]octan-3-yl)-7-(thiazol-2-yl)benzo[d]oxazol-5-yl)(azetidin-1-yl)methanone]: the IC50 is less than 100 nM.
Turning to `O=C(NCc1ccccc1)c1cc(-c2nccs2)c2oc(N3CC4CCC(C3)N4)nc2c1` [Example 98, N-benzyl-2-(3,8-diazabicyclo[3.2.1]octan-3-yl)-7-(thiazol-2-yl)benzo[d]oxazole-5-carboxamide], the IC50 was less than 100 nM.
As for `NC(=O)c1cc(-c2nccs2)c2oc(N3CC4CCC(C3)N4)nc2c1` [Example 99, 2-(3,8-Diazabicyclo[3.2.1]octan-3-yl)-7-(thiazol-2-yl) benzo[d]oxazole-5-carboxamide], the IC50 is less than 100 nM.
As to `CNC(=O)c1cc(-c2nccs2)c2oc(N3CC4CCC(C3)N4)nc2c1` [Example 100, 2-(3,8-Diazabicyclo[3.2.1]octan-3-yl)-N-methyl-7-(thiazol-2-yl)benzo[d]oxazole-5-carboxamide], the IC50 was less than 100 nM.
For `CC(=O)N(C)c1cc(-c2nccs2)c2oc(N3CC4CCC(C3)N4)nc2c1` [Example 101, N-(2-(3,8-diazabicyclo[3.2.1]octan-3-yl)-7-(thiazol-2-yl)benzo[d]oxazol-5-yl)-N-methylacetamide], the IC50 was less than 100 nM.
The same measure for `COC(C)(c1cc(-c2nccs2)c2oc(N3CC4CCC(C3)N4)nc2c1)C(F)(F)F` (centres unmarked) [Example 102, 2-(3,8-Diazabicyclo[3.2.1]octan-3-yl)-7-(thiazol-2-yl)-5-(1,1,1-trifluoro-2-methoxypropan-2-yl)benzo[d]oxazole]: less than 100 nM; for `COC(C)(c1cc(-c2nccs2)c2oc(N3CC4CC(C3)N4)nc2c1)C(F)(F)F` (centres unmarked) [Example 103, 2-(3,6-Diazabicyclo[3.1.1]heptan-3-yl)-7-(thiazol-2-yl)-5-(1,1,1-trifluoro-2-methoxypropan-2-yl)benzo[d]oxazole]: less than 100 nM.
Regarding `COC(c1cc(-c2nccs2)c2oc(N3CC4CCC(C3)N4)nc2c1)C(F)F` (centres unmarked) [Example 105, 2-(3,8-Diazabicyclo[3.2.1]octan-3-yl)-5-(2,2-difluoro-1-methoxyethyl)-7-(thiazol-2-yl)benzo[d]oxazole], the IC50 was less than 100 nM.
As to `CC(O)c1cc(-c2nccs2)c2oc(N3CC4CCC(C3)N4)nc2c1` (centres unmarked) [Example 106, 1-(2-(3,8-Diazabicyclo[3.2.1]octan-3-yl)-7-(thiazol-2-yl)benzo[d]oxazol-5-yl)ethan-1-ol], the IC50 was less than 100 nM.
As to `CC(O)c1cc(-c2nccs2)c2oc(N3CC4CC(C3)N4)nc2c1` (centres unmarked) [Example 107, 1-(2-(3,6-Diazabicyclo[3.1.1]heptan-3-yl)-7-(thiazol-2-yl)benzo[d]oxazol-5-yl)ethan-1-ol], the IC50 was in the range of 100 to 1000 nM.
Consider `CC(=O)c1cc(-c2nccs2)c2oc(N3CC4CCC(C3)N4)nc2c1` [Example 108, 1-(2-(3,8-Diazabicyclo[3.2.1]octan-3-yl)-7-(thiazol-2-yl)benzo[d]oxazol-5-yl)ethan-1-one], for which the IC50 is less than 100 nM.
For `CC(=O)c1cc(-c2nccs2)c2oc(N3CC4CC(C3)N4)nc2c1` [Example 109, 1-(2-(3,6-Diazabicyclo[3.1.1]heptan-3-yl)-7-(thiazol-2-yl)benzo[d]oxazol-5-yl)ethan-1-one], the IC50 is less than 100 nM.
The same measure for `COC(C)c1cc(-c2nccs2)c2oc(N3CC4CCC(C3)N4)nc2c1` (centres unmarked) [Example 110, 2-(3,8-Diazabicyclo[3.2.1]octan-3-yl)-5-(1-methoxyethyl)-7-(thiazol-2-yl)benzo[d]oxazole]: less than 100 nM.
